Reference: patent publication US4038407A, “Benzisothiazoline-1,1-dioxide derivatives, compositions and methods” (Boehringer Ingelheim GmbH, priority 1975, dated 1977)
Counter-ions that a name gives are not always drawn.

Assays:
[1] = Acute toxicity in mice; details: mouse, in vivo, observation time 14 days
Procedure: The acute toxicity of the compounds in question was determined in mice (observation time: 14 days) after oral or intravenous application. The LD50 was calculated from the percentage of animals which died after different doses within the observation time (see J. Pharmacol. exp. Therap. 96, 99 (1949)): […]

[2] = test system: heart rate of guinea pigs under urethane anesthesia; experiment: Activity on heart frequency of anesthetized guinea pigs; type: in vivo, guinea pig; details: ECG
Procedure: 1. Activity on heart frequency of anesthetized guinea pigs:
The heart rate of guinea pigs under urethane anesthesia was registered by an electrocardiogram. The test compound was administered intravenously at increasing dosage increments between 0.5 and 20 mg/kg.

[3] = test system: isolated, spontaneously beating auricles of guinea pigs; experiment: Effect on heart rate in the isolated auricle of the guinea pig; type: cell-based; details: Cavia porcellus; 10^-5 g/ml in organ bath, tyrode solution, 30° C., average of 5 auricles; read-out: Change in heart rate in %
Procedure: 2. Effect on heart rate in the isolated auricle of the guinea pig:
The effect on isolated, spontaneously beating auricles of guinea pigs of male and female sex having a body weight between 300 and 400 gm were investigated in an organ bath filled with tyrode solution. The nutritive solution was infused with carbogen (95% of O2 and 5% of CO2) and maintained at 30° C. The contractions were registered isometrically with a Statham-Force-transducer on a Grass-polygraph. The test compound was added to the organ bath so that the final concentration was 10^-^5 g/ml in each case. 5 auricles were used for each solution.
The following table gives the percentage decrease in the heart rate from an average of 5 auricles at a test compound concentration of 10^-^5 g/ml).

Compound | LD50 at 336 h ([1]; iv) | LD50 at 336 h ([1]; po) | Percentage change in heart rate ([2]; 0.5 mg/kg i.v.) | Percentage change in heart rate ([2]; 1.0 mg/kg i.v.) | Percentage change in heart rate ([2]; 2.0 mg/kg i.v.) | Percentage change in heart rate ([2]; 5.0 mg/kg i.v.) | Percentage change in heart rate ([2]; 10.0 mg/kg i.v.) | Percentage change in heart rate ([2]; 20.0 mg/kg i.v.) | inhibition at 10 µg/mL [3]
COc1ccc(CCN(C)CCCN2Cc3cc(OC)c(OC)cc3C2=O)cc1OC [A, 5,6-Dimethoxy-2N-(3-[α-(3,4-dimethoxy)-phenylethyl-methylamino]-propyl)-phthalimidine hydrochloride] | 98 mg/kg | 1570 mg/kg | -23.5% | -36.1% | -47.2% | -51.6% | -59.1% | -67.2% | 52%
COc1cc2c(cc1OC)C(=O)N(CCCN(C)CCc1ccc3c(c1)OCO3)C2 [D, 5,6-Dimethoxy-2N-(3-[α-(3,4-methylenedioxy)-phenylethylmethylamino]-propyl)-phthalimidine hydrochloride] |  |  |  |  |  |  |  |  | 51%
CN(CCCN1Cc2cc3c(cc2C1=O)OCCO3)CCc1ccc2c(c1)OCO2 [E, 5,6-Ethylenedioxy-2N-(3-[α-(3,4-methylenedioxy)-phenylethyl-methylamino]-propyl)-phthalimidine hydrochloride] |  |  |  |  |  |  |  |  | 48%
COc1ccc(CCN(C)CCCN2Cc3cc(OC)c(OC)cc3S2(=O)=O)cc1OC [B, 5,6-Dimethoxy-2-(3-[α-(3,4-dimethoxy)-phenylethyl-methylamino]-propyl)-1,2-benzisothiazoline-1,1-dioxide hydrochloride] | 100 mg/kg |  | -9.8% | -20.0% | -27.4% | -37.6% | -46.9% | -53.9% | 60%
